{"source": "patent US20070155661A1", "about": "“Methods and compositions for modulating the development of stem cells” (THE BOARD of TRUSTEES of the LELAND STANDORD JUNIOR …, priority 2003, published 2007)", "tested_on": "mouse ES cell-derived IPCCs", "experiment": "Insulin production by mouse ES cell-derived insulin-producing cell clusters (IPCCs)", "type": "cell-based", "experimental": "In duplicate experiments, we detect approximately 6000 ng insulin/mg protein produced by mouse embryoid bodies treated with a sequence of growth factors including GDF8.", "data": [{"substance": "GDF8: BMP/TGF-beta family growth factor, ~80% identical to GDF11 in the mature region", "values": [{"measurement": "effect on insulin production", "setting": "mouse ES cell-derived IPCCs", "result": "promotes insulin production"}, {"measurement": "insulin produced by mouse embryoid bodies", "setting": "mouse embryoid bodies treated with a sequence of growth factors including GDF8, duplicate experiments", "result": "approximately 6000 ng insulin/mg protein"}]}]}
